Assay results reported in ChEMBL document CHEMBL5380869, “Discovery of an Oral, Beyond-Rule-of-Five Mcl-1 Protein-Protein Interaction Modulator with the Potential of Treating Hematological Malignancies” (J Med Chem, 2023).
≈ marks a conversion by molar mass, not a printed value.

Columns and labels:
[1] = Intrinsic clearance in mouse liver microsomes measured upto 60 mins by LC-MS/MS analysis; format: ADME, Microsome; conditions: read-out: CLH
[2] = Thermodynamic (equilibrium) solubility of the compound measured after 3 days agitation in pH 2 buffer by LC-MS/MS analysis; format: physicochemical; conditions: time 3 day, read-out: Therm_solubility
[3] = Lipophilicity, CHI logD of compound at pH 2.6 by UPLC-TOF analysis; format: physicochemical; conditions: buffer
[4] = Lipophilicity, CHI logP of compound at pH 7.4 by UPLC-TOF analysis; format: physicochemical; conditions: buffer, read-out: logP
MOLP-8 = assay: Induction apoptosis in human MOLP8 cells assessed as cell killing measured after 2 hrs by Caspase-Glo 3/7 Assay; format: functional, cell-based; conditions: MOLP-8, 2 h
[5] = Thermodynamic (equilibrium) solubility of the compound measured after 3 days agitation in pH 7 buffer by LC-MS/MS analysis; format: physicochemical; conditions: time 3 day, read-out: Therm_solubility
[6] = Intrinsic clearance in human liver microsomes measured upto 60 mins by LC-MS/MS analysis; format: ADME, Microsome; conditions: read-out: CLH
[7] = Inhibition of terbium-labelled Mcl-1 (unknown origin)/Bim BH3 peptide (H3N-(C/Cy5Mal)-WIAQELRRIGDEFN-OH) (unknown origin) interaction assessed as displacement of Cy5-labeled Bim BH3 peptide by TR-HTRF assay
[8] = Lipophilicity, CHI logD of compound at pH 7.4 by UPLC-TOF analysis; format: physicochemical; conditions: buffer
[9] = Cardiotoxicity risk in human iPSC-CM assessed as calcium transients at 3 uM by CTCM assay; format: toxicity, cell-based
[10] = Cardiotoxicity risk in human iPSC-CM assessed as calcium transients at 1 uM by CTCM assay; format: toxicity, cell-based
[11] = Cardiotoxicity risk in human iPSC-CM assessed as calcium transients at 10 uM by CTCM assay; format: toxicity, cell-based

SMILES | microsomal CLint [1] | solubility thermodynamic at 72 h [2] | chromatographic logD [3] | chromatographic logD [4] | AC50 (MOLP-8) | solubility thermodynamic at 72 h [5] | microsomal CLint [6] | Ki [7] | chromatographic logD [8] | Activity [9] | Activity [10] | Activity [11]
C[C@@H]1[C@@H](C)C/C=C(\F)[C@@](O)(CN2CCN3CCCC[C@@H]3C2)[C@@H]2OCC[C@H]2CN2C[C@@]3(CCCc4cc(Cl)ccc43)COc3ccc(cc32)C(=O)NS1(=O)=O | < 7.7 µL/min/mg | 95 µM (≈ 74.6 µg/mL) | 2.5 | 2.9 | 2660 nM | < 0.1 µM | < 7.7 µL/min/mg | 0.22 nM | – | – | – | –
C[C@@H]1[C@@H](C)C/C=C/[C@H](O)[C@@H]2OCC[C@H]2CN2C[C@@]3(CCCc4cc(Cl)ccc43)COc3ccc(cc32)C(=O)NS1(=O)=O | 28 µL/min/mg | < 0.1 µM | – | – | 752 nM | 53 µM (≈ 32.6 µg/mL) | 16 µL/min/mg | 0.72 nM | 2.6 | – | – | –
CO[C@@H]1/C(F)=C/C[C@H](C)[C@@H](C)S(=O)(=O)NC(=O)c2ccc3c(c2)N(C[C@@H]2CCO[C@H]21)C[C@@]1(CCCc2cc(Cl)ccc21)CO3 | 21 µL/min/mg | < 0.5 µM | – | – | 1120 nM | 11.2 µM (≈ 7.25 µg/mL) | < 7.7 µL/min/mg | 1.13 nM | 3 | – | – | –
COc1nn(C)cc1C(=O)N[S@@]1(=O)=NC(=O)c2ccc3c(c2)N(C[C@@H]2CCO[C@H]2[C@H](OC)/C(F)=C/C[C@H](C)C1)C[C@@]1(CCCc2cc(Cl)ccc21)CO3 | < 7.7 µL/min/mg | 0.2 µM (≈ 0.154 µg/mL) | – | – | > 5000 nM | 188 µM (≈ 145 µg/mL) | < 7.7 µL/min/mg | 5.1 nM | 2.9 | Non-Toxic | Non-Toxic | –
COc1nn(C)cc1C(=O)N[S@]1(=O)=NC(=O)c2ccc3c(c2)N(C[C@@H]2CCO[C@H]2[C@@](CN2CCN4CCOC[C@@H]4C2)(OC)/C(F)=C/C[C@H](C)C1)C[C@@]1(CCCc2cc(Cl)ccc21)CO3 | < 7.7 µL/min/mg | 544 µM (≈ 503 µg/mL) | – | – | 424 nM | 518 µM (≈ 479 µg/mL) | < 7.7 µL/min/mg | 0.048 nM | 3 | Non-Toxic | Non-Toxic | –
COc1nn(C)cc1C(=O)N[S@]1(=O)=NC(=O)c2ccc3c(c2)N(C[C@@H]2CCO[C@H]2[C@](CN2CCN4CCOC[C@@H]4C2)(OC)/C(F)=C/C[C@H](C)C1)C[C@@]1(CCCc2cc(Cl)ccc21)CO3 | < 7.7 µL/min/mg | 480 µM (≈ 444 µg/mL) | – | – | 702 nM | 25 µM (≈ 23.1 µg/mL) | < 7.7 µL/min/mg | 0.17 nM | 3 | Non-Toxic | Non-Toxic | Non-Toxic
C/C1=C\C[C@H](C)[C@@H](C)S(=O)(=O)NC(=O)c2ccc3c(c2)N(C[C@@H]2CCO[C@H]2[C@H]1CO)C[C@@]1(CCCc2cc(Cl)ccc21)CO3 | 27 µL/min/mg | < 0.1 µM | – | – | 752 nM | < 0.1 µM | < 7.7 µL/min/mg | 0.52 nM | 2.8 | – | – | –
C[C@@H]1[C@@H](C)C/C=C(\F)[C@@](O)(CC#N)[C@@H]2OCC[C@H]2CN2C[C@@]3(CCCc4cc(Cl)ccc43)COc3ccc(cc32)C(=O)NS1(=O)=O | < 7.7 µL/min/mg | < 0.5 µM | – | – | > 5000 nM | 0.3 µM (≈ 0.202 µg/mL) | < 7.7 µL/min/mg | 2.36 nM | 3.1 | – | – | –
CO[C@@]1(CN2CCN3CCCC[C@@H]3C2)/C(F)=C/C[C@H](C)[C@@H](C)S(=O)(=O)NC(=O)c2ccc3c(c2)N(C[C@@H]2CCO[C@H]21)C[C@@]1(CCCc2cc(Cl)ccc21)CO3 | < 7.7 µL/min/mg | 40 µM (≈ 32 µg/mL) | 2.5 | 3 | 1860 nM | 102 µM (≈ 81.5 µg/mL) | < 7.7 µL/min/mg | 0.15 nM | – | – | – | –
CO[C@H]1/C(F)=C/C[C@H](C)[C@@H](C)S(=O)(=O)NC(=O)c2cnc3c(n2)N(C[C@@H]2CCO[C@H]21)C[C@@]1(CCCc2cc(Cl)ccc21)CO3 | < 7.7 µL/min/mg | < 0.1 µM | – | – | 1220 nM | 143 µM (≈ 92.8 µg/mL) | 98 µL/min/mg | 5.29 nM | 2.8 | – | – | –
COc1nn(C)cc1C(=O)N[S@]1(=O)=NC(=O)c2ccc3c(c2)N(C[C@@H]2CCO[C@H]2[C@H](OC)/C(F)=C/C[C@H](C)C1)C[C@@]1(CCCc2cc(Cl)ccc21)CO3 | 16 µL/min/mg | < 0.1 µM | – | – | 486 nM | 0.6 µM (≈ 0.462 µg/mL) | < 7.7 µL/min/mg | 0.025 nM | 3.1 | Non-Toxic | Non-Toxic | Non-Toxic
C[C@@H]1[C@@H](C)C/C=C(\F)[C@H](OCCN2CCOCC2)[C@@H]2OCC[C@H]2CN2C[C@@]3(CCCc4cc(Cl)ccc43)COc3ccc(cc32)C(=O)NS1(=O)=O | 34 µL/min/mg | 539 µM (≈ 402 µg/mL) | 2.5 | – | 314 nM | 1.2 µM (≈ 0.896 µg/mL) | 62 µL/min/mg | 0.19 nM | 2.7 | Non-Toxic | Non-Toxic | Non-Toxic
COCCN(CCOC)C[C@]1(OC)/C(F)=C/C[C@H](C)[C@@H](C)S(=O)(=O)NC(=O)c2ccc3c(c2)N(C[C@@H]2CCO[C@H]21)C[C@@]1(CCCc2cc(Cl)ccc21)CO3 | 28 µL/min/mg | 518 µM (≈ 410 µg/mL) | 3 | 3.9 | 412 nM | 1.1 µM (≈ 0.872 µg/mL) | < 7.7 µL/min/mg | 0.096 nM | – | – | – | –
COC[C@H]1/C(C)=C/C[C@H](C)[C@@H](C)S(=O)(=O)NC(=O)c2ccc3c(c2)N(C[C@@H]2CCO[C@H]21)C[C@@]1(CCCc2cc(Cl)ccc21)CO3 | 18 µL/min/mg | < 0.1 µM | – | – | 1820 nM | < 0.1 µM | < 7.7 µL/min/mg | 0.67 nM | 3.7 | – | – | –
COc1nn(C)cc1C(=O)N[S@@]1(=O)=NC(=O)c2ccc3c(c2)N(C[C@@H]2CCO[C@H]2[C@@H](OC)/C=C/C[C@H](C)C1)C[C@@]1(CCCc2cc(Cl)ccc21)CO3 | < 7.7 µL/min/mg | 0.27 µM (≈ 0.203 µg/mL) | – | – | 76.1 nM | 172 µM (≈ 129 µg/mL) | < 7.7 µL/min/mg | 0.023 nM | 2.9 | Non-Toxic | Non-Toxic | Non-Toxic
COc1nn(C)cc1C(=O)N[S@]1(=O)=NC(=O)c2ccc3c(c2)N(C[C@@H]2CCO[C@H]2[C@@H](OC)/C(F)=C/C[C@H](C)C1)C[C@@]1(CCCc2cc(Cl)ccc21)CO3 | 9.3 µL/min/mg | < 0.1 µM | – | – | 2420 nM | 202 µM (≈ 156 µg/mL) | 16 µL/min/mg | 0.25 nM | 3 | Non-Toxic | Non-Toxic | –
C[C@@H]1[C@@H](C)C/C=C(\F)[C@@](O)(CC(=O)N(C)C)[C@@H]2OCC[C@H]2CN2C[C@@]3(CCCc4cc(Cl)ccc43)COc3ccc(cc32)C(=O)NS1(=O)=O | < 7.7 µL/min/mg | < 0.1 µM | – | – | 436 nM | < 0.1 µM | < 7.7 µL/min/mg | 0.18 nM | 3.6 | Non-Toxic | Non-Toxic | –
C[C@@H]1[C@@H](C)C/C=C/[C@H](OCCN2CCOCC2)[C@@H]2OCC[C@H]2CN2C[C@@]3(CCCc4cc(Cl)ccc43)COc3ccc(cc32)C(=O)NS1(=O)=O | 14 µL/min/mg | 521 µM (≈ 379 µg/mL) | 2.3 | – | 616 nM | 0.4 µM (≈ 0.291 µg/mL) | 34 µL/min/mg | 0.23 nM | 2.7 | Non-Toxic | Non-Toxic | Non-Toxic
CO[C@@]1(CN2CCN3CCOC[C@@H]3C2)/C(F)=C/C[C@H](C)[C@H](C)S(=O)(=O)NC(=O)c2ccc3c(c2)N(C[C@@H]2CCO[C@H]21)C[C@@]1(CCCc2cc(Cl)ccc21)CO3 | 22 µL/min/mg | 516 µM (≈ 414 µg/mL) | 3.4 | 3.3 | 992 nM | < 0.1 µM | < 7.7 µL/min/mg | 0.13 nM | – | Non-Toxic | Non-Toxic | Toxic
CO[C@]1(CN2CCN3CCOC[C@@H]3C2)/C(F)=C/C[C@H](C)[C@@H](C)S(=O)(=O)NC(=O)c2ccc3c(c2)N(C[C@@H]2CCO[C@H]21)C[C@@]1(CCCc2cc(Cl)ccc21)CO3 | 21 µL/min/mg | 44 µM (≈ 35.3 µg/mL) | 2.8 | 3.5 | 163 nM | < 0.1 µM | 11 µL/min/mg | 0.088 nM | – | Non-Toxic | Non-Toxic | Toxic
